Experimental data published in patent US10519446B2, “Organic compounds to treat hepatitis B virus” (priority 2013, dated 2019).
Where two headings read alike, the source gives them in different places.

Assays:
[1] = Serum stability of siRNAs with 3′ end caps in mouse serum; assay type: in vitro ADME; details: 100% mouse serum; 37° C.; up to 24 h; gel, SYBR gold
[2] = Serum stability of siRNAs with 3′ end caps in human serum; assay type: in vitro ADME; details: 100% human serum; 37° C.; up to 24 h; gel, SYBR gold
[3] = system: FVII (Factor VII); assay: RNA interference against FVII by 19-mer siRNAs with 3′ end caps (FIG. 2); set-up: species or system mouse; details: mF7-III 19-mer blunt-ended, A12S17
[4] = system: HBV; assay: Efficacy of HBV RNAi agents in HepG2.2.15 cells in vitro (sAg KD); assay type: cell-based, Hepatitis B Virus; details: for Max % KD, EXPERIMENT 1 / Max % KD, EXPERIMENT 2: percent knockdown; for Percent sAg remaining at maximum knockdown: percent residual gene activity
Method: Table 9. Efficacy of HBV RNAi agents.
The efficacy of various HBV RNAi agents was tested in HepG2.2.15 cells in vitro. 10 μM was used. […] It is noted that, due to the nature of the HepG2.2.15 cell line, it is difficult to achieve greater than 50% knockdown.

[5] = HepG2.2.15 cells in vitro, Experiment 1, read-out: EC50 (nM), EXPERIMENT 1
[6] = average of Experiments 1 and 2, read-out: EC50 (nM), AVERAGE
[7] = Experiment 2, HepG2.2.15 cells, nM printed only at the Experiment 1 and AVERAGE EC50 heads, read-out: EC50, EXPERIMENT 2

Row | Compound | stability in mouse serum [1] | stability in human serum [2] | RNA interference against FVII [3] | Max % KD, EXPERIMENT 1 ([4]; Experiment 1, HepG2.2.15 cells) [%] | Percent sAg remaining at maximum knockdown ([4]; Experiment 1, HepG2.2.15 cells) [%] | EC50 [4, 5] [nM] | Max % KD, AVERAGE ([4]; average of Experiments 1 and 2) [%] | EC50 [4, 6] [nM] | EC50 [4, 7] [nM] | Max % KD, EXPERIMENT 2 ([4]; Experiment 2, HepG2.2.15 cells) [%] | Percent sAg remaining at maximum knockdown ([4]; Experiment 2, HepG2.2.15 cells) [%]
1 | c1ccc(-c2ccccc2)cc1 [Biphenyl] | increased stability | increased stability | allow the RNAi agent to perform RNA interference | – | – | – | – | – | – | – | –
2 | 12: "Twelve of the best HBV RNAi agents identified are listed below, in various formats, in Tables 8A-8E, 9 and 10" (sense GGACUUCUCUCAAUUUUCU; antisense AGAAAAUUGAGAGAAGUCC; chemistry not given here) [Number 12] | – | – | – | 36.89 | 63.11 | 0.093 | 36.89 | 0.093 | – | – | –
3 | 9: "HBV RNAi agents numbered 1 to 10"; "The RNAi agents used are listed in Table 8E" (18-mer format) (sense GGAGGCUGUAGGCAUAAAU; antisense AUUUAUGCCUACAGCCUCC; chemistry not given here) [Number 9] | – | – | – | 48.8 | 51.2 | 0.131 | 49.4 | 0.4 | 0.67 | 50 | 50
4 | 6: "HBV RNAi agents numbered 1 to 10"; "The RNAi agents used are listed in Table 8E" (18-mer format) (sense GGCUGUAGGCAUAAAUUGG; antisense CCAAUUUAUGCCUACAGCC; chemistry not given here) [Number 6] | – | – | – | 37.3 | 62.7 | 0.008 | 38.15 | 0.07 | 0.13 | 39 | 61
5 | OCCOCCOCCO [Triethylene glycol] | – | – | allow the RNAi agent to perform RNA interference | – | – | – | – | – | – | – | –
6 | 3: "HBV RNAi agents numbered 1 to 10"; "The RNAi agents used are listed in Table 8E" (18-mer format) (sense CCAUACUGCGGAACUCCUA; antisense UAGGAGUUCCGCAGUAUGG; chemistry not given here) [Number 3] | – | – | – | 49.8 | 50.2 | 0.111 | 44.25 | 0.06 | 0.016 | 38.7 | 61.3
7 | 7: "HBV RNAi agents numbered 1 to 10"; "The RNAi agents used are listed in Table 8E" (18-mer format) (sense GCUGUAGGCAUAAAUUGGU; antisense ACCAAUUUAUGCCUACAGC; chemistry not given here) [Number 7] | – | – | – | 41.5 | 58.5 | 0.038 | 40.9 | 0.22 | 0.409 | 40.3 | 59.7
8 | 4: "HBV RNAi agents numbered 1 to 10"; "The RNAi agents used are listed in Table 8E" (18-mer format) (sense GAGGCUGUAGGCAUAAAUU; antisense AAUUUAUGCCUACAGCCUC; chemistry not given here) [Number 4] | – | – | – | 43.3 | 56.7 | 0.017 | 45.95 | 0.04 | 0.056 | 48.6 | 51.4
9 | 11: "An 18-mer ... with the sequences of Number 11E in Table 10"; "an additional HBV RNAi agent, HBV 279" (sense GGUUCUUCUGGAUUAUCAA; antisense UUGAUAAUCCAGAAGAACC; chemistry not given here) | – | – | – | 65.39 | 34.61 | 0.039 | 59.695 | 0.07 | 0.105 | 54 | 46
10 | C[C@H](CCC(=O)O)[C@H]1CC[C@H]2[C@@H]3CC[C@@H]4C[C@H](O)CC[C@]4(C)[C@H]3CC[C@]12C [lithochol, lithocholic acid] | increased stability | less stable | – | – | – | – | – | – | – | – | –
11 | 8: "HBV RNAi agents numbered 1 to 10"; "The RNAi agents used are listed in Table 8E" (18-mer format) (sense CAGCAAUGUCAACGACCGA; antisense UCGGUCGUUGACAUUGCUG; chemistry not given here) [Number 8] | – | – | – | 37.5 | 62.5 | 0.025 | 47.65 | 0.1 | 0.177 | 57.8 | 42.2
12 | 10: "HBV RNAi agents numbered 1 to 10"; "The RNAi agents used are listed in Table 8E" (18-mer format) (sense GAGAUUAGGUUAAAGGUCU; antisense AGACCUUUAACCUAAUCUC; chemistry not given here) [Number 10] | – | – | – | 57.3 | 42.7 | 0.066 | 54.1 | 0.25 | 0.437 | 50.9 | 49.1
13 | OCCOCCOCCO [glycol, triethylene glycol] | increased stability | increased stability | – | – | – | – | – | – | – | – | –
14 | 5: "One sequence used was designated siHBV_1599_18mer_CAM, and corresponds to Number 5 in Table 8E" (sense CCGUGUGCACUUCGCUUCA; antisense UGAAGCGAAGUGCACACGG; chemistry not given here) | – | – | – | 41.3 | 58.7 | 0.127 | 39.55 | 0.07 | 0.013 | 37.8 | 62.2
15 | C1C2CC3CC1CC(C2)C3 [Adamantane] | – | – | allow the RNAi agent to perform RNA interference | – | – | – | – | – | – | – | –
